Source: publication PMC3781849 (Journal of Clinical Pharmacology, 2013)
Values joined by “and” are separate entries in the source; they are usually repeats but may differ in a detail not shown here. Equal values may be shown once. “Also recorded” adds a separate entry of the source. Read-outs that look alike come from different tables or passages of the source.

Assays:
[1] = dasatinib + ketoconazole 200 mg twice daily; cited from earlier work
[2] = earlier studies; cited from earlier work
[3] = nilotinib + ketoconazole 400 mg once daily; cited from earlier work
[4] = cited from earlier work
[5] = monkeys; preclinical studies; cited from earlier work
[6] = rats; preclinical studies; cited from earlier work
[7] = for Cmax: geometric mean (%CV, n)
[8] = test system: cells expressing all BCR-ABL mutants tested, including the T315I gatekeeper mutant; conditions: preclinical; includes T315I; cited from earlier work
[9] = Safety and tolerability in the ponatinib ± ketoconazole crossover study
[10] = single 45-mg oral dose of 14C-labeled ponatinib, healthy volunteers; cited from earlier work
[11] = bosutinib + ketoconazole 400 mg once daily; cited from earlier work
[12] = ponatinib + ketoconazole vs ponatinib alone
[13] = ponatinib + ketoconazole vs ponatinib alone, from estimated mean ratio
[14] = ponatinib alone, 2 of 23 subjects
[15] = ponatinib with ketoconazole, 2 of 23 subjects

Q: Which “Increase in AUC” value [1] does the source give for Cc1nc(Nc2ncc(C(=O)Nc3c(C)cccc3Cl)s2)cc(N2CCN(CCO)CC2)n1 [dasatinib] here?
A: Its value is 4.8 fold.

Q: What about the “Increase in Cmax” value [1] of the same molecule?
A: The value was 3.6 fold.

Q: What about the “Prolongation of t1/2” value [1] of the same molecule?
A: The value was 5.4 h.

Q: With Cc1ccc(C(=O)O)cc1C#Cc1cnc2cccnn12 [AP24600] as the molecule, how does the Pharmacological activity [2] read?
A: Its Pharmacological activity is “pharmacologically inactive”.

Q: With Cc1ccc(C(=O)Nc2ccc(CN3CCNCC3)c(C(F)(F)F)c2)cc1C#Cc1cnc2cccnn12 [AP24567] as the molecule, how does the “Potency, less potent than ponatinib” value [2] read?
A: The value was 4 fold.

Q: For Cc1cn(-c2cc(NC(=O)c3ccc(C)c(Nc4nccc(-c5cccnc5)n4)c3)cc(C(F)(F)F)c2)cn1 [nilotinib], which “Decrease in apparent clearance” value [3] is on record?
A: The value was 2.5 fold.

Q: What about the “Increase in AUC0–t” value [3] of the same molecule?
A: The value was 1.8 fold.

Q: And the “Increase in AUC0–∞” value [3]?
A: Its value is 3 fold.

Q: What about the “Increase in t1/2” value [3] of the same molecule?
A: The value was 17.5 h.

Q: For Cc1ccc(C(=O)Nc2ccc(CN3CCN(C)CC3)c(C(F)(F)F)c2)cc1C#Cc1cnc2cccnn12 [Ponatinib], which “Steady-state trough plasma concentration” value ([4]; daily doses of 30 mg) is on record?
A: The value was over 40 nM.

Q: What about the “Accumulation of AUC from first dose to steady-state” value ([4]; once-daily ponatinib 45 mg) of the same molecule?
A: Its value is “approximately 1.5 fold”.

Q: What about the “Steady-state trough concentration, geometric mean” value ([4]; once-daily ponatinib 45 mg) of the same molecule?
A: Its value is 64 nM and 34.2 ng/mL.

Q: What about the “Dose proportionality of exposure (Cmax and AUC)” value ([4]; patients, initial dose and steady-state, doses 2 to 60 mg) of the same molecule?
A: The value was “approximately dose-proportional”.

Q: And the “Time of maximum plasma levels” value ([4]; patients, oral once-daily ponatinib, postdose)?
A: The value was “approximately 4 hours”.

Q: And the Elimination half-life ([4]; ponatinib 45 mg, patients)?
A: The Elimination half-life was “approximately 22 hours”.

Q: What about the “Relation to maximum tolerated dose” value ([4]; ponatinib 60 mg daily, phase 1 study) of the same molecule?
A: The value was “exceeded the maximum tolerated dose”.

Q: And the Absolute oral bioavailability [5]?
A: Its Absolute oral bioavailability is 20%.

Q: And the Absolute oral bioavailability [6]?
A: Its Absolute oral bioavailability is 54%.

Q: And the AUC(0-inf) ([7]; human, in vivo, 15 mg)?
A: Its AUC(0-inf) is 472 ng·h/mL.

Q: And the AUC(0-t) ([7]; human, in vivo, 15 mg)?
A: The AUC(0-t) was 414 ng·h/mL.

Q: What about the half-life ([7]; human, in vivo, 15 mg) of the same molecule?
A: The half-life was 35.3 h.

Q: And the Cmax ([7]; human, in vivo, 15 mg, Cmax, ponatinib 15 mg alone)?
A: Its Cmax is 16.1 ng/mL.

Q: What about the Tmax ([7]; human, in vivo, po, 15 mg) of the same molecule?
A: Its Tmax is about 6 h.

Q: And the Cmax ([7]; ponatinib 15 mg + ketoconazole 400 mg daily)?
A: The Cmax was 23.6 (30.7, 22) ng/mL.

Q: And the Cmax ([7]; ponatinib 15 mg alone)?
A: The Cmax was 16.1 (36.0, 22) ng/mL.

Q: And the “Effect of ketoconazole on t1/2 / terminal elimination” value [7, 12]?
A: Its value is “not essentially affected; also recorded: did not affect”.

Q: And the “Effect of ketoconazole on tmax” value [7, 12]?
A: Its value is “not affected; also recorded: did not affect”.

Q: What about the “Increase in exposure, Cmax” value [7, 12] of the same molecule?
A: Its value is 47%.

Q: And the “Increase in exposure, AUC0–t” value [7, 13]?
A: The value was 70%.

Q: What about the “Increase in exposure, AUC0–∞” value [7, 13] of the same molecule?
A: Its value is 78%.

Q: And the “Time at which mean plasma concentrations reached a maximum” value ([7]; single oral dose of 15 mg, independent of ketoconazole coadministration)?
A: Its value is 5 to 6 h.

Q: And the “Concentration sufficient to inhibit viability of cells expressing all BCR-ABL mutants tested and to suppress emergence of mutant clones” value [8]?
A: The value was 40 nM.

Q: What about the “Serious AEs” value ([9]; both regimens) of the same molecule?
A: Its value is “no serious AEs”.

Q: What about the “Subjects with at least one drug-related AE” value ([9]; both regimens) of the same molecule?
A: Its value is “Nine”.

Q: What about the “Vital sign, ECG, physical examination findings” value ([9]; both regimens) of the same molecule?
A: The value was “No treatment-related or clinically significant vital sign, ECG, or physical examination findings”.

Q: And the “Subjects with at least one treatment-emergent adverse event” value ([9]; of 23 subjects, both regimens, all mild)?
A: The value was “Eleven”.

Q: And the Tolerability ([9]; ponatinib 15 mg, both alone and in combination with ketoconazole)?
A: Its Tolerability is “generally well tolerated”.

Q: And the “Increased lipase (TEAE)” value [9, 14]?
A: Its value is 8.7%.

Q: And the “Somnolence (TEAE)” value [9, 14]?
A: Its value is 8.7%.

Q: And the “Headache (TEAE)” value [9, 15]?
A: The value was 8.7%.

Q: What about the “Somnolence (TEAE)” value [9, 15] of the same molecule?
A: The value was 8.7%.

Q: What about the “Total radioactivity recovered in feces” value [10] of the same molecule?
A: Its value is 87%.

Q: And the “Total radioactivity recovered in urine” value [10]?
A: Its value is 5%.

Q: For COc1cc(Nc2c(C#N)cnc3cc(OCCCN4CCN(C)CC4)c(OC)cc23)c(Cl)cc1Cl [bosutinib], which “Decrease in apparent clearance” value [11] is on record?
A: The value was 9 fold.

Q: And the “Increase in AUC0–t” value [11]?
A: The value was 7.6 fold.

Q: And the “Increase in AUC0–∞” value [11]?
A: The value was 8.6 fold.

Q: What about the “Increase in Cmax” value [11] of the same molecule?
A: Its value is 5.2 fold.

Q: And the “Prolongation of t1/2” value [11]?
A: Its value is 22.8 h.
